Read-outs that look alike come from different tables or passages of the source.
Experiments:
RWPE-1 cells = experiment: MTT cell proliferation assay, RWPE-1; assay type: cell-based; settings: for IC50: MTT, 48 h treatment in FBS-free medium, read-out: IC50 Value (Mean ± SD mM) RWPE-1
Method: (§1) PC-3, LNCaP, RWPE-1, HepG2, A549, and PANC-1 cells were purchased from the National Collection of Authenticated Cell Cultures (Shanghai, China). […] All the above cell cultures were supplied with 10% fetal bovine serum and 1% penicillin-streptomycin. RWPE-1 cells were cultured in keratinocyte serum-free medium (K-SFM, Gibco, New York, NY, USA) supplemented with 50 mg/L bovine pituitary extract and 5 μg/L epidermal growth factor (EGF). All cell lines were grown in a humidified atmosphere of 5% CO2 at 37 °C.
(§2) Cells were seeded in 100 μL complete medium in a 96-well plate, at a density of 10,000 cells/well for LNCaP and 5000 cells/well for other cells. Cells were pre-incubated for 24 h to allow for adherence before removal of complete medium and treatment with various concentrations of compounds in fetal bovine serum (FBS)-free medium for 48 h. After treatment, 20 μL/well MTT (5 mg/mL) was added and incubated for 3–4 h at 37 °C, and then 100 μL/well DMSO was added for MTT assay. The plate was shaken on an orbital shaker for 10 min. Absorbance was measured using a microplate reader at 492 nm for the MTT assay (performed in triplicates). Cell viability was normalized to control. Half inhibitory concentration (IC50) was calculated by SPSS Statistics 17.0. […] The experiments were independently repeated two to three times.

PC-3 cells = experiment: MTT cell proliferation assay, PC-3; assay type: cell-based, human; settings: read-out: IC50 Value (Mean ± SD mM) PC-3
Method: as §1, §2

LNCaP cells = experiment: MTT cell proliferation assay, LNCaP; assay type: cell-based; settings: 48 h treatment in FBS-free medium, read-out: IC50 Value (Mean ± SD mM) LNCaP
Method: as §1, §2

A549 cells = experiment: MTT cell proliferation assay, A549; assay type: cell-based; settings: read-out: IC50 Value (Mean ± SD mM) A549
Method: as §1, §2

HepG2 cells = experiment: MTT cell proliferation assay, HepG2; assay type: cell-based; settings: read-out: IC50 Value (Mean ± SD mM) HepG2
Method: as §1, §2

PANC-1 cells = experiment: MTT cell proliferation assay, PANC-1; assay type: cell-based; settings: read-out: IC50 Value (Mean ± SD mM) PANC-1
Method: as §1, §2

[1] = test system: PC-3, LNCaP, RWPE-1, A549, PANC-1, and HepG2 cells; experiment: MTT cell proliferation assay, all cell lines; assay type: cell-based
Method: (§3) PC-3, LNCaP, RWPE-1, HepG2, A549, and PANC-1 cells were purchased from the National Collection of Authenticated Cell Cultures (Shanghai, China). PC-3 and A549 cells were cultured in F-12K Nutrient Mixture (Gibco, New York, NY, USA), LNCaP in RPMI 1640 (Gibco, New York, NY, USA), PANC-1 in Dulbecco’s Modified Eagle Medium (DMEM, Gibco, New York, NY, USA), and HepG2 in minimal essential medium (MEM, Gibco, New York, NY, USA). All the above cell cultures were supplied with 10% fetal bovine serum and 1% penicillin-streptomycin. RWPE-1 cells were cultured in keratinocyte serum-free medium (K-SFM, Gibco, New York, NY, USA) supplemented with 50 mg/L bovine pituitary extract and 5 μg/L epidermal growth factor (EGF). All cell lines were grown in a humidified atmosphere of 5% CO2 at 37 °C.
(§4) Cells were seeded in 100 μL complete medium in a 96-well plate, at a density of 10,000 cells/well for LNCaP and 5000 cells/well for other cells. Cells were pre-incubated for 24 h to allow for adherence before removal of complete medium and treatment with various concentrations of compounds in fetal bovine serum (FBS)-free medium for 48 h. After treatment, 20 μL/well MTT (5 mg/mL) was added and incubated for 3–4 h at 37 °C, and then 100 μL/well DMSO was added for MTT assay. The plate was shaken on an orbital shaker for 10 min. Absorbance was measured using a microplate reader at 492 nm for the MTT assay (performed in triplicates). Cell viability was normalized to control. Half inhibitory concentration (IC50) was calculated by SPSS Statistics 17.0. The combination index (CI) isobologram equation was used for the quantitative determination of the interaction between two compounds [62]:(1) Combination index CI =CA,x/ICx,A+CB,x/ICx,B where CA,x and CB,x are compound concentrations that […], and ICx,A and ICx,B are compound concentrations that provide the same effect when being used in combination. The experiments were independently repeated two to three times.

PC-3 xenograft tumors = experiment: PC-3 xenograft mouse model; assay type: in vivo; settings: 200 mg/kg
Method: Five-week-old male BALB/c nude mice were purchased from Charles River Laboratories (Beijing, China) and raised in a temperature and humidity-controlled environment (25 ± 2 °C, 50% ± 10% humidity) with a standard 12 h light-dark cycle with food and water in cages under germ-free conditions (SCXK2021-0006). All procedures involving animals and their care were approved by the Institutional Animal Care and Use Committee of the Ocean University of China in accordance with institutional and National Institutes of Health guidelines (OUC-SMP-2022-01-01). PC-3 cells (4 × 10^6 dissolved in 150 μL PBS) were injected subcutaneously into the armpit area of each mouse. For the first treatment group, when tumors reached 50 mm^3, 80 mg/kg of tryptamine dissolved in normal saline with 0.1% formic acid was administered intraperitoneally once every other day for 32 days (n = 6). […] The control groups were administrated with the vehicle. The tumor volume (mm^3) was calculated based on the formula:(2) Tumor volume (mm^3)=length×width^2/2

ovarian cancer = test system: ovarian cancer; design: method as in PMID 27121207; settings: intraperitoneal injections of 10 mg/kg; cited from earlier work
PC-3 and LNCaP cells = experiment: MTT cell proliferation assay, PCa cell lines; assay type: cell-based; settings: Homo sapiens, read-out: IC50 values on PCa cell lines
Method: as §3, §4

[2] = test system: human castration-resistant PCa cells DU145 and PC3; design: method as in PMID 33945018; settings: cited from earlier work
[3] = test system: A549, HepG2, and PANC-1 cells; experiment: MTT cell proliferation assay, other three cancer cell lines; assay type: cell-based; settings: A549, HepG2, and PANC-1, text summary
Method: as §1, §2

[4] = Homo sapiens, PC-3, 48 h treatment in FBS-free medium
[5] = Homo sapiens, A549, 48 h treatment in FBS-free medium
[6] = Homo sapiens, HepG2, 48 h treatment in FBS-free medium
[7] = Homo sapiens, PANC-1, 48 h treatment in FBS-free medium
[8] = all cell lines tested, read-out: IC50 values for all six cell lines tested
[9] = 48 h treatment in FBS-free medium
[10] = discussion summary, all cancer cell lines tested, read-out: IC50 values in all cancer cell lines tested

Compound	IC50 (RWPE-1 cells; Homo sapiens, RWPE-1) [mM]	IC50 (PC-3 cells; [4]) [mM]	IC50 (LNCaP cells; Homo sapiens, LNCaP) [mM]	IC50 (A549 cells; [5]) [mM]	IC50 (HepG2 cells; [6]) [mM]	IC50 (PANC-1 cells; [7]) [mM]	IC50 [1, 8] [µM]	also measured
Nc1c(O)cccc1C(=O)O [3-HAA, 3-hydroxyanthranilic acid]	0.38 ± 0.01	0.9 ± 0.04	0.65 ± 0.06	0.27 ± 0.01	0.42 ± 0.02	0.41 ± 0.01	≤ 900	Effect on proliferation of RWPE-1 cells (RWPE-1 cells; concentrations between 0.03 and 0.1 mM): promoted the proliferation; tumor size (PC-3 xenograft tumors; intraperitoneal administration): No difference in tumor size; tumor size (PC-3 xenograft tumors; intratumoral administration): No difference in tumor size
Nc1c(O)cccc1C(=O)CC(N)C(=O)O (centres unmarked) [3-HK, 3-hydroxykynurenine]	–	–	–	–	–	–	≤ 900	IC50 (RWPE-1 cells): 0.36 ± 0.01 mM; IC50 (PC-3 cells; [9]): 0.55 ± 0.01 mM; IC50 (LNCaP cells): 0.29 ± 0.01 mM; IC50 (A549 cells; [9]): 0.29 ± 0.01 mM; IC50 (HepG2 cells; [9]): 0.25 ± 0.01 mM; IC50 (PANC-1 cells; [9]): 0.25 ± 0.01 mM
NCCc1c[nH]c2ccc(O)cc12 [5-HT, 5-hydroxytryptamine]	1.66 ± 0.01	1.07 ± 0.03	1.12 ± 0.04	1.89 ± 0.09	1.05 ± 0.17	1.34 ± 0.13	≥ 1000	tumor weight increase (ovarian cancer): ~60%
N[C@@H](Cc1c[nH]c2ccc(O)cc12)C(=O)O [5-HTP, 5-hydroxytryptophan]	0.85 ± 0.05	0.99 ± 0.04	1.8 ± 0.17	–	–	–	–	–
Nc1c(C(=O)O)c2nc3c(C(=O)O)cccc3oc-2cc1=O [CA, cinnabarinic acid]	0.4 ± 0.01	0.17 ± 0.01	0.24 ± 0.01	0.21 ± 0.01	0.1 ± 0.01	0.25 ± 0.04	≤ 900	–
COc1cc([C@@H]2c3cc4c(cc3[C@@H](O[C@@H]3O[C@@H]5CO[C@@H](C)O[C@H]5[C@H](O)[C@H]3O)[C@H]3COC(=O)[C@H]23)OCO4)cc(OC)c1O [Etoposide, reference compound]	0.016 ± 0.001	0.064 ± 0.001	0.032 ± 0.001	0.041 ± 0.002	0.03 ± 0.001	0.042 ± 0.001	–	–
c1ccc2[nH]ccc2c1 [Indole]	0.9 ± 0.06	0.7 ± 0.02	0.98 ± 0.02	–	–	–	–	–
O=C(O)c1cc(=O)c2ccccc2[nH]1 [KYNA, kynurenic acid]	4.39 ± 0.1	8.76 ± 1.18	9.74 ± 1.3	–	–	–	–	IC50 (PC-3 and LNCaP cells; PC-3 and LNCaP): > 5000 µM; IC50 [1, 10]: > 3000 µM; effect on DU145 and PC3 cells [2]: scarce or no effect
Nc1ccccc1C(=O)CC(N)C(=O)O (centres unmarked) [Kynurenine, kynurenine]	2.79 ± 0.05	2.02 ± 0.05	1.78 ± 0.18	2.46 ± 0.05	1.93 ± 0.03	2.63 ± 0.04	≥ 1000	–
COc1ccc2[nH]cc(CCNC(C)=O)c2c1 [Melatonin]	1.47 ± 0.1	1.28 ± 0.06	1.25 ± 0.12	2.31 ± 0.06	1.48 ± 0.1	2.02 ± 0.09	≥ 1000	–
O=C(O)c1ccccn1 [Picolinic acid]	1.48 ± 0.06	4.95 ± 0.19	5.75	–	–	–	–	–
O=C(O)c1cccnc1C(=O)O [QA, quinolinic acid]	3.2 ± 0.16	6 ± 1.32	6.83 ± 0.42	–	–	–	–	IC50 (PC-3 and LNCaP cells; PC-3 and LNCaP): > 5000 µM; IC50 [1, 10]: > 3000 µM
N[C@@H](Cc1c[nH]c2ccccc12)C(=O)O [Tryptophan]	0.76 ± 0.03	1.89 ± 0.13	6.51 ± 0.29	1.5 ± 0.15	1.54 ± 0.04	4.54 ± 0.19	–	IC50 (PC-3 and LNCaP cells; LNCaP): 1900 to 6500 µM; IC50 [3]: 1500 to 4500 µM
NCCc1ccc(O)cc1 [Tyramine, reference compound]	2.99 ± 0.08	1.53 ± 0.04	1.71 ± 0.12	3.18 ± 0.24	1.53 ± 0.05	0.77 ± 0.04	–	–
NCCc1ccccc1 [β-phenylethylamine, reference compound]	–	–	–	–	–	–	–	IC50 (RWPE-1 cells): 2.51 ± 0.19 mM; IC50 (PC-3 cells; [9]): 0.44 ± 0.01 mM; IC50 (LNCaP cells): 0.69 ± 0.06 mM; IC50 (A549 cells; [9]): 0.72 ± 0.06 mM; IC50 (HepG2 cells; [9]): 1.01 ± 0.03 mM; IC50 (PANC-1 cells; [9]): 1.47 ± 0.07 mM

— article PMC9569450, “Dual Effect of Tryptamine on Prostate Cancer Cell Growth Regulation: A Pilot Study” (International Journal of Molecular Sciences, 2022)
